In the supplement of paper PMC9265050, “Inhibition of RNA Binding in SND1 Increases the Levels of miR-1-3p and Sensitizes Cancer Cells to Navitoclax” (Cancers, 2022):

Test system: SW480
Assay: drug sensitivity score (DSS, integrated dose-response area); higher = more sensitive (stronger viability reduction); extreme values may be limits of the assay
Summary of the method: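 SW480 cells stably carrying doxycycline-inducible control or SND1-targeting shRNA were treated with 0.1 µg/mL doxycycline for 7 days. Cells were then seeded at 1000 per well into 384-well plates containing 525 commercially available small-molecule inhibitors at five concentrations, and viability was measured with CellTiter-Glo after 72 h. The drug sensitivity score integrates the area under a fitted non-linear dose–response model.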

[1] = shRNA: SND1 shRNA1 (SND1 silenced)
[2] = shRNA: SND1 shRNA2 (SND1 silenced)
[3] = shRNA: control shRNA (non-targeting)

Structure (SMILES) | drug sensitivity score [1] [DSS] | drug sensitivity score [2] [DSS] | drug sensitivity score [3] [DSS]
CC(C)(C)Cn1c(N)nc2ccc(-c3[nH]c(C(C)(C)C)nc3-c3ccc(F)cc3)nc21 [Ralimetinib] | 1.7 | 0 | 0.2
O=C(c1ccc(OCCN2CCCCC2)cc1)c1c(-c2ccc(O)cc2)sc2cc(O)ccc12 [Raloxifene] | 6.6 | 4.1 | 7.2
Cc1nc(=O)c2cc(CN(C)c3ccc(C(=O)N[C@@H](CCC(=O)O)C(=O)O)s3)ccc2[nH]1 [Raltitrexed] | 5.2 | 0 | 4.8
CNC(=O)c1cc(Oc2ccc(NC(=O)Nc3cc(C(C)(C)C)nn3-c3ccc4ncccc4c3)c(F)c2)ccn1 [Rebastinib] | 0 | 0 | 0
COc1cc(F)c(F)c(Nc2ccc(I)cc2F)c1NS(=O)(=O)C1(C[C@H](O)CO)CC1 [Refametinib] | 26.8 | 18 | 11.1
CNC(=O)c1cc(Oc2ccc(NC(=O)Nc3ccc(Cl)c(C(F)(F)F)c3)c(F)c2)ccn1 [Regorafenib] | 7.8 | 7.9 | 5.1
CN(C)Cc1ccc(S(=O)(=O)n2ccc(/C=C/C(=O)NO)c2)cc1 [Resminostat] | 8 | 8.1 | 6.1
CN(C)C(=O)c1cc2cnc(Nc3ccc(N4CCNCC4)cn3)nc2n1C1CCCC1 [Ribociclib] | 3.8 |  | 4.9
CO[C@H]1C[C@@H]2CC[C@@H](C)[C@@](O)(O2)C(=O)C(=O)N2CCCC[C@H]2C(=O)O[C@H]([C@H](C)C[C@@H]2CC[C@@H](OP(C)(C)=O)[C@H](OC)C2)CC(=O)[C@H](C)/C=C(\C)[C@@H](O)[C@@H](OC)C(=O)[C@H](C)C[C@H](C)/C=C/C=C/C=C/1C [Ridaforolimus] | 5.9 |  | 2.3
COc1cc(OC)c(/C=C/S(=O)(=O)Cc2ccc(OC)c(NCC(=O)O)c2)c(OC)c1 [Rigosertib] | 15.1 | 18.2 | 16.4
C=CC(=O)Nc1cccc(Nc2nc(Nc3ccc(N4CCN(C(C)=O)CC4)cc3OC)ncc2C(F)(F)F)c1 [Rociletinib] | 7.2 | 3.5 | 7.5
O=C(CCCCCCNC(=O)c1cnc(N(c2ccccc2)c2ccccc2)nc1)NO [Rocilinostat] | 4 | 7 | 8.4
CS(=O)(=O)c1ccc(C2=C(c3ccccc3)C(=O)OC2)cc1 [Rofecoxib] | 0 | 0 | 0
C/C=C1\NC(=O)[C@H]2CSSCC/C=C/[C@H](CC(=O)N[C@H](C(C)C)C(=O)N2)OC(=O)[C@H](C(C)C)NC1=O [Romidepsin] | 25.7 | 25.1 | 27.4
CN(C)C[C@@H]1CCn2cc(c3ccccc32)C2=C(C(=O)NC2=O)c2cn(c3ccccc23)CCO1 [Ruboxistaurin] | 8.1 | 7.8 | 7.4
CNCc1ccc(-c2[nH]c3cc(F)cc4c3c2CCNC4=O)cc1 [Rucaparib] | 0.3 | 3 | 4.6
N#CC[C@H](C1CCCC1)n1cc(-c2ncnc3[nH]ccc23)cn1 [Ruxolitinib] | 2.3 | 5.6 | 4.4
CC(C)N(CCCNC(=O)Nc1ccc(C(C)(C)C)cc1)C[C@H]1O[C@@H](n2cc(Br)c3c(N)ncnc32)[C@H](O)[C@@H]1O [SGC0946] | 4.6 | 1.3 | 4.3
COc1ccc(CCc2nc3cc(-c4c(C)noc4C)ccc3n2C[C@H](C)N2CCOCC2)cc1Cl [SGC-CBP30] | 0.8 | 2.1 | 2.3
CN1CCC(CNc2ccc3ncc(-c4cccc(OC(F)(F)F)c4)n3n2)CC1 [SGI-1776] | 9.6 | 9.5 | 8.9
Cn1cc(-c2ccc3nnc(Sc4ccc5ncccc5c4)n3n2)cn1 [SGX-523] | 0 |  | 0
CN(CC(=O)N(Cc1ccc(C2CCCCC2)cc1)c1ccc(C(=O)O)cc1)S(=O)(=O)c1c(F)c(F)c(F)c(F)c1F [SH-4-54] | 9.8 | 8.6 | 9.5
CC(C)NC(=O)COc1cccc(-c2nc(Nc3ccc4[nH]ncc4c3)c3ccccc3n2)c1 [SLx-2119] | 0 | 0 | 0
CCc1c2c(nc3ccc(O)cc13)-c1cc3c(c(=O)n1C2)COC(=O)[C@]3(O)CC [SN-38] | 21.2 | 12.5 | 18.7

Structure (SMILES) | drug sensitivity score [1] [DSS] | drug sensitivity score [2] [DSS] | drug sensitivity score [3] [DSS]
CC(C)(C)c1cnc(CSc2cnc(NC(=O)C3CCNCC3)s2)o1 [SNS-032] | 18.1 | 15 | 16.5
O=C(Nc1cccc(Cl)c1)Nc1ncc(CCNc2ncnc3ccsc23)s1 [SNS-314] | 4.8 | 4.3 | 5.6
Cc1cc2c(C(=O)NC[C@H](C)c3ccccc3)c(O)c(O)cc2c(O)c1-c1c(C)cc2c(C(=O)NC[C@H](C)c3ccccc3)c(O)c(O)cc2c1O [Sabutoclax] | 14.2 | 13.3 | 12.7
CNC(=O)CN1CCC(Oc2cc3c(Nc4cccc(Cl)c4F)ncnc3cc2OC)CC1 [Sapitinib] | 0.1 | 5 | 0
CN1CCN(CCOc2cc(OC3CCOCC3)c3c(Nc4c(Cl)ccc5c4OCO5)ncnc3c2)CC1 [Saracatinib] | 1.4 | 1.3 | 1.5
CC[C@H](CO)Nc1nc(NCc2ccccc2)c2ncn(C(C)C)c2n1 [Seliciclib] | 2.1 | 0.7 | 1.2
O=C(/C=C\n1cnc(-c2cc(C(F)(F)F)cc(C(F)(F)F)c2)n1)NNc1cnccn1 [Selinexor] | 19.5 | 19.3 | 20.7
Cn1cnc2c(F)c(Nc3ccc(Br)cc3Cl)c(C(=O)NOCCO)cc21 [Selumetinib] | 19.1 | 8.9 | 4.7
Cc1cc(C)c(/C=C2\C(=O)Nc3ccccc32)[nH]1 [Semaxanib] | 0 | 0 | 0.6
c1ccc2c(CCNc3ccc(Nc4ccncc4)cc3)c[nH]c2c1 [Serdemetan] | 2.4 | 1 | 2.2
O=C(O)c1ccc2c(c1)nc(Nc1cccc(Cl)c1)c1ccncc12 [Silmitasertib] | 2.1 | 2.1 | 0.8
CCC(C)(C)C(=O)O[C@H]1C[C@@H](C)C=C2C=C[C@H](C)[C@H](CC[C@@H]3C[C@@H](O)CC(=O)O3)[C@H]21 [Simvastatin] | 1.2 |  | 4.5
CO[C@H]1C[C@@H]2CC[C@@H](C)[C@@](O)(O2)C(=O)C(=O)N2CCCC[C@H]2C(=O)O[C@H]([C@H](C)C[C@@H]2CC[C@@H](O)[C@H](OC)C2)CC(=O)[C@H](C)/C=C(\C)[C@@H](O)[C@@H](OC)C(=O)[C@H](C)C[C@H](C)/C=C/C=C/C=C/1C [Sirolimus] | 7.8 |  | 6.9
Cc1c(C(=O)Nc2ccc(N3C[C@@H](C)O[C@@H](C)C3)nc2)cccc1-c1ccc(OC(F)(F)F)cc1 [Sonidegib] | 2.9 | 5.7 | 2.8
C=CCN(/C=C1/C(=O)O[C@H](COC)[C@@]2(C)C1=C(O)C(=O)C1=C2[C@H](OC(C)=O)C[C@]2(C)C(=O)CC[C@@H]12)CC=C [Sonolisib] | 0 | 0.3 | 2.1
CNC(=O)c1cc(Oc2ccc(NC(=O)Nc3ccc(Cl)c(C(F)(F)F)c3)cc2)ccn1 [Sorafenib] | 0 | 0 | 0
CN1CCN(c2nc(C3=C(c4c[nH]c5ccccc45)C(=O)NC3=O)c3ccccc3n2)CC1 [Sotrastaurin] | 4.5 | 0.5 | 4.9
C=CC(=O)Nc1cccc(Nc2nc(Nc3ccc(OCCOC)cc3)ncc2F)c1 [Spebrutinib] | 2.5 | 0 | 4.4
O=[N+]([O-])c1ccc2c(c1)S(=O)(=O)C=C2 [Stattic] | 16 | 15.8 | 9.5
CC(C)n1cnc2c(NCCc3ccc(O)cc3)nc(-c3csc4ccccc34)nc21 [StemRegenin 1] | 1.3 | 1 | 0.8
CN(N=O)C(=O)N[C@@H](C=O)[C@@H](O)[C@H](O)[C@H](O)CO [Streptozocin] | 0.8 | 5.9 | 4.1
CCN(CC)CCNC(=O)c1c(C)[nH]c(/C=C2\C(=O)Nc3ccc(F)cc32)c1C [Sunitinib] | 0.3 | 0.1 | 0.7
CC(C)(O)CC(=O)NCCn1ccc2ncnc(Nc3ccc(Oc4cccc(C(F)(F)F)c4)c(Cl)c3)c21 [TAK-285] | 0 | 0 | 0
